{"source": "paper PMC8355244", "about": "“A fragment-based approach identifies an allosteric pocket that impacts malate dehydrogenase activity” (Communications Biology, 2021)", "assay": "Precipitation / turbidity of compound in assay buffer (600 nm)", "type": "physicochemical", "conditions": "activity screening buffer, 500 µM", "method": "1.3 µL of derivatives of 4-phenylthiazol-2-amine in 100% DMSO were mixed with 237.7 µL of a mastermix of WT PfMDH previously incubated with NAD+. The final compound concentration used in this screening was 500 µM in the presence of 0.5% (v/v) DMSO. The microplate was sealed with silver foil for 1-h incubation at 25–35 °C. Finally, reactions in both the samples and control wells were started upon the addition of 13.0 µL of 5 mM malate). At the end of the experiments, the reaction of the plate was spectrophotometrically assayed at 600 nm in order to identify turbidity due to the low solubility of the compound. All measurements were performed in duplicate."}
{"smiles": "CC(C)c1ccc(-c2csc(N)n2)cc1", "note": "[compound 10a]", "values": [{"measurement": "precipitation of compound in the buffer", "value": "precipitation of compound was observed"}]}
